This is an account of results in US20250197372A1 (priority 2020, published 2025).

Bounds are passed on as bounds.

By IC50 is commonly meant the concentration that inhibits the measured activity by half.

Holding throughout (type): biochemical
The target of experiment [1] is rat maltase (partially purified alpha-glucosidase from intestinal rat powder). As to the kind of experiment: Intestinal alpha-glucosidase assay, maltose substrate (Glucose GO Kit). The method in brief: (§1)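 Rat intestinal enzyme prep + test cpd dilutions, 60 min 37 °C; add maltose (maltase) or sucrose (sucrase), 30 min 37 °C; stop 90 °C 5 min. Glucose readout (glucose oxidase kit). IC50 from 4-PL fit of % inhibition vs conc.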

Experiment [2] concerns the target T1, recombinant human GBA (beta-glucocerebrosidase) (Homo sapiens, UniProt P04062).
T1 sequence (P04062 40-536): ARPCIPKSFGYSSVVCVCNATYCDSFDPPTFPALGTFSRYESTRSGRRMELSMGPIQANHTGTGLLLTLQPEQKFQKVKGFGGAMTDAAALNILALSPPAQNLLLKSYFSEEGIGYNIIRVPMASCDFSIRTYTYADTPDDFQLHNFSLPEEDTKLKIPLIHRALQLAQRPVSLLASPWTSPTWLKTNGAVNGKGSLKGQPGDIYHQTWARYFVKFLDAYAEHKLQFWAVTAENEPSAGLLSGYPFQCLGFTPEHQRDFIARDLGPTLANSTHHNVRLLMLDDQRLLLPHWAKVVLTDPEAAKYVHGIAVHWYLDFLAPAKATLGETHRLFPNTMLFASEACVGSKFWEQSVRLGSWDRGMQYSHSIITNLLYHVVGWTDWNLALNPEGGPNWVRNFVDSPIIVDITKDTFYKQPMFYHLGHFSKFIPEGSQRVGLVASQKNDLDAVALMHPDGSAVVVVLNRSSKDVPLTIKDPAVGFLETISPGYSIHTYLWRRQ
Description: Beta-glucocerebrosidase (GBA, glucosylceramidase) assay (4-methylumbelliferyl-beta-D-pyranoside substrate, fluorescence). In short, it runs like this:
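Recombinant human GBA preincubated with compound dilutions 60 min at 37 °C, then 4-methylumbelliferyl-beta-D-pyranoside added for 60 min at 37 °C. Stopped at pH 10 (glycine/NaOH); fluorescence ex 365/em 440 nm. IC50 from 4-PL fit of inhibition relative to untreated enzyme.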

In experiment [3] the target is recombinant human GAA (acid alpha-glucosidase) (Homo sapiens, UniProt P10253). Description: Acid alpha-glucosidase (GAA) assay (4-methylumbelliferyl-alpha-D-pyranoside substrate, fluorescence). In short, it runs like this: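 Recombinant human enzyme preincubated 60 min at 37 °C with compound dilutions, then 4-methylumbelliferyl-alpha-D-pyranoside substrate added for 20 min at 37 °C. Stopped with glycine/NaOH pH 10; methylumbelliferone fluorescence (ex 365, em 440 nm) versus untreated enzyme; IC50 by 4-PL fit.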

The target of experiment [4] is rat sucrase (partially purified alpha-glucosidase from intestinal rat powder) (Rattus norvegicus, UniProt P23739). As to the kind of experiment: Intestinal alpha-glucosidase assay, sucrose substrate (Glucose GO Kit). The method in brief:
as §1

rat sucrase (partially purified alpha-glucosidase from intestinal rat powder), sequence (P23739 whole entry): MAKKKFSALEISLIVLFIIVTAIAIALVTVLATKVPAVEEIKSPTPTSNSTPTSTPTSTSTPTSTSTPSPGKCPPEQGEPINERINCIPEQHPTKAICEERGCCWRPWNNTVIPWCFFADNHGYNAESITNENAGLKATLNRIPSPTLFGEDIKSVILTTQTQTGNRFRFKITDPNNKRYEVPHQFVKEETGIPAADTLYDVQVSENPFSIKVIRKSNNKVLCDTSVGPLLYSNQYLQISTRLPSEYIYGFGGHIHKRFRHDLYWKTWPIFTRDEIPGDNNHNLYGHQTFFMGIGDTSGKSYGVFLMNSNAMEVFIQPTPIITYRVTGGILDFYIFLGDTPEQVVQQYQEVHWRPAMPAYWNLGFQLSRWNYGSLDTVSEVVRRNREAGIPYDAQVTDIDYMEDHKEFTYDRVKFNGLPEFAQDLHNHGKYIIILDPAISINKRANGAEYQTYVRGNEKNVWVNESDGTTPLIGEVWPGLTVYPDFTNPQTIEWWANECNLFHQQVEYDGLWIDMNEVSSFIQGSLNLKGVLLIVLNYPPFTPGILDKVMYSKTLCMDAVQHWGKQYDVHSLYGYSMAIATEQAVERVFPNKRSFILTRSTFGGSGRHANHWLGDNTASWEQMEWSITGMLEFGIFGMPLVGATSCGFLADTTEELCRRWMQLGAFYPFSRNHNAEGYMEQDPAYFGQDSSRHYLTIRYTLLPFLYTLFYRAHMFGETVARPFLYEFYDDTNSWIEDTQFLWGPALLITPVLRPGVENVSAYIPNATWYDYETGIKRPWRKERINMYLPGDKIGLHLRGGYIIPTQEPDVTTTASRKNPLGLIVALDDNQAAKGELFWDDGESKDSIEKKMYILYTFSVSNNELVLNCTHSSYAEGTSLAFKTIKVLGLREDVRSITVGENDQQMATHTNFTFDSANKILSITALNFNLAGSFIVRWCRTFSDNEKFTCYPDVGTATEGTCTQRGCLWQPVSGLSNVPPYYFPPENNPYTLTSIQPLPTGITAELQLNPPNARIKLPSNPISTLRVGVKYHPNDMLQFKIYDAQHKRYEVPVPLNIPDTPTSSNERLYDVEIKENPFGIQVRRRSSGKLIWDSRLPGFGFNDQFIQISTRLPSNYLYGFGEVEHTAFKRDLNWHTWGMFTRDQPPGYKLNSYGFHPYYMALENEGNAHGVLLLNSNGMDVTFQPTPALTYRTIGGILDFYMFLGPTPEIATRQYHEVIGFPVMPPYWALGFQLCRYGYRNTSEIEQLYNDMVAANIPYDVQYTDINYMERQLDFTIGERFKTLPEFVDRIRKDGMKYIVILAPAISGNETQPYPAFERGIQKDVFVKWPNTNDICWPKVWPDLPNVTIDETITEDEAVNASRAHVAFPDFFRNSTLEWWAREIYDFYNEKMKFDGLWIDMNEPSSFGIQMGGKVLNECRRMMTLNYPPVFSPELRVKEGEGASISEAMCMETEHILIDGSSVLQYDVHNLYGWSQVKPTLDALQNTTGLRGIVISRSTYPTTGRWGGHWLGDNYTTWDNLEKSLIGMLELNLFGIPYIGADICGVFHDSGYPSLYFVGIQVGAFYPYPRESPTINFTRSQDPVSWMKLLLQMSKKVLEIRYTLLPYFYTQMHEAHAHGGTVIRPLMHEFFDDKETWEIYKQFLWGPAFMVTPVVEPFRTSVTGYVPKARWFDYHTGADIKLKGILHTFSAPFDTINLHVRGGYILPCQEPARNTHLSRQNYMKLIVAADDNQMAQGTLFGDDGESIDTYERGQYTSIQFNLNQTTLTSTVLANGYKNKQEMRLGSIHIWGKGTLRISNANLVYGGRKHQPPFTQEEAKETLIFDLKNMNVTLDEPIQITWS

`OC[C@@H]1[C@@H](O)[C@H](O)[C@@H](O)CN1Cc1ccc(CNc2ccc(-c3ccc[nH]3)cc2)cc1` [Compound 1094, (2R,3R,4R,5S)-2-(hydroxymethyl)-1-{[4-({[4-(1H-pyrrol-2-yl)phenyl]amino}methyl)phenyl]methyl}piperidine-3,4,5-triol]: the IC50 in experiment [1] turned out to be 19 nM; in experiment [2] it was 12300 nM; in experiment [3], 246 nM; in experiment [4], 57 nM.
In the same order, the values of `OC[C@@H]1[C@@H](O)[C@H](O)[C@@H](O)CN1Cc1ccc(CNc2ccc(-c3ncccn3)cc2)cc1` [Compound 1096, (2R,3R,4R,5S)-2-(hydroxymethyl)-1-{[4-({[4-(pyrimidin-2-yl)phenyl]amino}methyl)phenyl]methyl}piperidine-3,4,5-triol] are 11 nM, 17600 nM, 259 nM and 23 nM.
In the same order, the values of `O=[N+]([O-])c1cc(C2=COCCO2)ccc1NCc1ccc(CN2C[C@H](O)[C@@H](O)[C@H](O)[C@H]2CO)cc1` [Compound 1099, (2R,3R,4R,5S)-1-{[4-({[4-(5,6-dihydro-1,4-dioxin-2-yl)-2-nitrophenyl]amino}methyl)phenyl]methyl}-2-(hydroxymethyl)piperidine-3,4,5-triol] are below 1 nM, 37100 nM, below 1 nM and below 1 nM.
On the same counts, the results for `O=[N+]([O-])c1cc(-c2ccc[nH]2)ccc1NCc1ccc(CN2C[C@H](O)[C@@H](O)[C@H](O)[C@H]2CO)cc1` [Compound 1100, (2R,3R,4R,5S)-2-(hydroxymethyl)-1-{[4-({[2-nitro-4-(1H-pyrrol-2-yl)phenyl]amino}methyl)phenyl]methyl}piperidine-3,4,5-triol] are below 1 nM, 41700 nM, 161 nM and 2 nM.
Take `O=[N+]([O-])c1cc(-c2cccnn2)ccc1NCc1ccc(CN2C[C@H](O)[C@@H](O)[C@H](O)[C@H]2CO)cc1` [Compound 1101, (2R,3R,4R,5S)-2-(hydroxymethyl)-1-{[4-({[2-nitro-4-(pyridazin-3-yl)phenyl]amino}methyl)phenyl]methyl}piperidine-3,4,5-triol]: the IC50 in experiment [1] was below 1 nM; in experiment [2] it was 32700 nM; in experiment [3], 25 nM; in experiment [4], 4 nM.
On the same counts, the results for `O=[N+]([O-])c1cc(-c2ncccn2)ccc1NCc1ccc(CN2C[C@H](O)[C@@H](O)[C@H](O)[C@H]2CO)cc1` [Compound 1102, (2R,3R,4R,5S)-2-(hydroxymethyl)-1-{[4-({[2-nitro-4-(pyrimidin-2-yl)phenyl]amino}methyl)phenyl]methyl}piperidine-3,4,5-triol] are below 1 nM, 28700 nM, 28 nM and below 1 nM.
On to `[N-]=[N+]=Nc1ccc(NCCC23CC(CCN4C[C@H](O)[C@@H](O)[C@H](O)[C@H]4CO)(C2)C3)c([N+](=O)[O-])c1` [Compound 1103, (2R,3R,4R,5S)-1-[2-(3-{2-[(4-azido-2-nitrophenyl)amino]ethyl}bicyclo[1.1.1]pentan-1-yl)ethyl]-2-(hydroxymethyl)piperidine-3,4,5-triol], for which the IC50 was determined as 279 nM in experiment [1], 11900 nM in experiment [2], 2660 nM in experiment [3] and 569 nM in experiment [4].
Turning to `[N-]=[N+]=Nc1ccc(NCc2ccc(Cc3ccc(CN4C[C@H](O)[C@@H](O)[C@H](O)[C@H]4CO)cc3)cc2)c([N+](=O)[O-])c1` [Compound 1105, (2R,3R,4R,5S)-1-({4-[(4-{[(4-azido-2-nitrophenyl)amino]methyl}phenyl)methyl]phenyl}methyl)-2-(hydroxymethyl)piperidine-3,4,5-triol], the IC50 stood at 6 nM in experiment [1], 9090 nM in experiment [2], 60 nM in experiment [3] and 12 nM in experiment [4].
In the same order, the values of `[N-]=[N+]=Nc1ccc(NCC[C@H]2CC[C@@H](CCN3C[C@H](O)[C@@H](O)[C@H](O)[C@H]3CO)CC2)c([N+](=O)[O-])c1` [Compound 1106, (2R,3R,4R,5S)-2-(hydroxymethyl)-1-{2-[(1s,4s)-4-{2-[(4-azido-2-nitrophenyl)amino]ethyl}cyclohexyl]ethyl}piperidine-3,4,5-triol] are 31 nM, 6970 nM, 36 nM and 6 nM.
In the same order, the values of `[N-]=[N+]=Nc1ccc(NCC[C@H]2CC[C@H](CCN3C[C@H](O)[C@@H](O)[C@H](O)[C@H]3CO)CC2)c([N+](=O)[O-])c1` [Compound 1107, (2R,3R,4R,5S)-2-(hydroxymethyl)-1-{2-[(1r,4r)-4-{2-[(4-azido-2-nitrophenyl)amino]ethyl}cyclohexyl]ethyl}piperidine-3,4,5-triol] are 249 nM, 362 nM, 3190 nM and 576 nM.
In the same order, the values of `O=[N+]([O-])c1cc(CN2CCCO2)ccc1NCCc1ccc(CCN2C[C@H](O)[C@@H](O)[C@H](O)[C@H]2CO)cc1` [Compound 1108, (2R,3R,4R,5S)-2-(hydroxymethyl)-1-(2-{4-[2-({2-nitro-4-[(1,2-oxazolidin-2-yl)methyl]phenyl}amino)ethyl]phenyl}ethyl)piperidine-3,4,5-triol] are 98 nM, 6000 nM, 311 nM and 908 nM.
For the compound `O=[N+]([O-])c1cc(-c2cccnn2)ccc1NCCc1ccc(CCN2C[C@H](O)[C@@H](O)[C@H](O)[C@H]2CO)cc1` [Compound 1109, (2R,3R,4R,5S)-2-(hydroxymethyl)-1-{2-[4-(2-{[2-nitro-4-(pyridazin-3-yl)phenyl]amino}ethyl)phenyl]ethyl}piperidine-3,4,5-triol], the IC50 was 1 nM in experiment [1], 6550 nM in experiment [2], 3 nM in experiment [3] and 446 nM in experiment [4].
For `O=[N+]([O-])c1cc(-c2ccncc2)ccc1NCCc1ccc(CCN2C[C@H](O)[C@@H](O)[C@H](O)[C@H]2CO)cc1` [Compound 1110, (2R,3R,4R,5S)-2-(hydroxymethyl)-1-{2-[4-(2-{[2-nitro-4-(pyridin-4-yl)phenyl]amino}ethyl)phenyl]ethyl}piperidine-3,4,5-triol], the IC50 in experiment [1] is below 1 nM; in experiment [2] it was 48 nM; in experiment [3], 7 nM; in experiment [4], 63 nM.
For the compound `O=[N+]([O-])c1cc(-c2ncccn2)ccc1NCCc1ccc(CCN2C[C@H](O)[C@@H](O)[C@H](O)[C@H]2CO)cc1` [Compound 1111, (2R,3R,4R,5S)-2-(hydroxymethyl)-1-{2-[4-(2-{[2-nitro-4-(pyrimidin-2-yl)phenyl]amino}ethyl)phenyl]ethyl}piperidine-3,4,5-triol], the IC50 was below 1 nM in experiment [1], 1790 nM in experiment [2], 20 nM in experiment [3] and 773 nM in experiment [4].
For `O=[N+]([O-])c1cc(-c2ncco2)ccc1NCCc1ccc(CCN2C[C@H](O)[C@@H](O)[C@H](O)[C@H]2CO)cc1` [Compound 1112, (2R,3R,4R,5S)-2-(hydroxymethyl)-1-{2-[4-(2-{[2-nitro-4-(1,3-oxazol-2-yl)phenyl]amino}ethyl)phenyl]ethyl}piperidine-3,4,5-triol], the IC50 in experiment [1] turned out to be 1 nM; in experiment [2] it was 4990 nM; in experiment [3], 105 nM; in experiment [4] it was 915 nM.
Turning to `O=S(=O)(Nc1cc(NCCCCCCN2C[C@H](O)[C@@H](O)[C@H](O)[C@H]2CO)cc(-c2ncccn2)c1)C1CC1` [Compound 1114, N-[3-(pyrimidin-2-yl)-5-({6-[(2R,3R,4R,5S)-3,4,5-trihydroxy-2-(hydroxymethyl)piperidin-1-yl]hexyl}amino)phenyl]cyclopropanesulfonamide], the IC50 in experiment [1] is 5 nM; in experiment [2] it was 5140 nM; in experiment [3] it was 16 nM; in experiment [4], 52 nM.
On the same counts, the results for `[N-]=[N+]=Nc1ccc(NCCc2cc(CCN3C[C@H](O)[C@@H](O)[C@H](O)[C@H]3CO)cc(C3CCCCC3)c2)c([N+](=O)[O-])c1` [Compound 1115, (2R,3R,4R,5S)-1-[2-(3-{2-[(4-azido-2-nitrophenyl)amino]ethyl}-5-cyclohexylphenyl)ethyl]-2-(hydroxymethyl)piperidine-3,4,5-triol] are 6740 nM, 407 nM, 5490 nM and 10500 nM.
